Reference: patent publication US20100056526A1, “HETEROMONOCYCLIC COMPOUND AND USE THEREOF” (Takeda Pharmaceutical Company Limited, priority 2006, published 2010)

Assays:
PPARγ = target: T1, PPARγ (Homo sapiens, UniProt P37231); assay: Evaluation of PPARγ activating action (luciferase reporter in PPARγ:RXRα:4ERPP/CHO-K1 cells); type: cell-based; conditions: CHO-K1, 24 h; test compound 10^−6 M; luciferase activity relative to control compound X (1 μM) = 100%, non-administration group = 0%; read-out: PPARγ activating action (activation % (10^−6 M))
T1 construct: expressed in transfected cells; host or cells: CHO-K1
T1 sequence (P37231 1-477 isoform P37231-2): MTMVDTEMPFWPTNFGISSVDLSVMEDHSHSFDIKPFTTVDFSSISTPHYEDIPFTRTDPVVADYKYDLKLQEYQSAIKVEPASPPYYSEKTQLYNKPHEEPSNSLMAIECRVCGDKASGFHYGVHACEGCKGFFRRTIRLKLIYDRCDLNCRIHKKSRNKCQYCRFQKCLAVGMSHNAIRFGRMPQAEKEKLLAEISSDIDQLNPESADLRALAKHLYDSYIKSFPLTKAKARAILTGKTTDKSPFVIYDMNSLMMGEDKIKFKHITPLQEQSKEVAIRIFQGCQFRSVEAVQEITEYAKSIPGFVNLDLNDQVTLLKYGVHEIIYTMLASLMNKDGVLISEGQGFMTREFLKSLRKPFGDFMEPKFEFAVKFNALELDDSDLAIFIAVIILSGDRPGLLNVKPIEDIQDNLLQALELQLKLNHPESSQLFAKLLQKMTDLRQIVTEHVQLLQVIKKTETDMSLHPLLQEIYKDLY
T1 sequence (P19793 1-462 partner): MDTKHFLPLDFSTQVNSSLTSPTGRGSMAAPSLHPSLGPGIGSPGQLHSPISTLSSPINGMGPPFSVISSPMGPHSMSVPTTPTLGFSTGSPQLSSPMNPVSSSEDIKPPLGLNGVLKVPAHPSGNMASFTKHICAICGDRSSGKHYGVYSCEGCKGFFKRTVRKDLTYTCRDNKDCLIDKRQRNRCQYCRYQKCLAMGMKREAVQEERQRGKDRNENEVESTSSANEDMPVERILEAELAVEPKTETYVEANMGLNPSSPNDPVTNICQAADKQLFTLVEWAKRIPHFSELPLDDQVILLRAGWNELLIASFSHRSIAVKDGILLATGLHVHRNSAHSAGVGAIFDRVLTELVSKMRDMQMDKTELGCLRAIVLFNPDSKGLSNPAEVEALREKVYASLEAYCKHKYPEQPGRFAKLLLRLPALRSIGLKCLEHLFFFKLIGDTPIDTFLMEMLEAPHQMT
Procedure, shortened: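 Activity is expressed as percent, where vehicle gives 0% and 1 μM compound X gives 100%, based on luciferase luminescence. Reporter CHO-K1 cells co-expressing PPARγ:RXRα with a 4ERPP-driven luciferase were incubated with test compound for one day at 37 °C in medium with 0.1% fatty acid-free BSA.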

human AT1 receptor = target: T2, human AT1 receptor (Homo sapiens, UniProt P30556); assay: Binding assay using human AT1 receptor-expressing CHO-K1 cell membrane fraction ([125I]-angiotensin II); conditions: 22.5 pM [125I]-angiotensin II, 9 μg AT1 membrane, 1 hr room temperature; read-out: AT1 receptor binding inhibitory action (IC50 (nM))
T2 construct: expressed in transfected cells; host or cells: CHO-K1
T2 sequence (P30556 1-359): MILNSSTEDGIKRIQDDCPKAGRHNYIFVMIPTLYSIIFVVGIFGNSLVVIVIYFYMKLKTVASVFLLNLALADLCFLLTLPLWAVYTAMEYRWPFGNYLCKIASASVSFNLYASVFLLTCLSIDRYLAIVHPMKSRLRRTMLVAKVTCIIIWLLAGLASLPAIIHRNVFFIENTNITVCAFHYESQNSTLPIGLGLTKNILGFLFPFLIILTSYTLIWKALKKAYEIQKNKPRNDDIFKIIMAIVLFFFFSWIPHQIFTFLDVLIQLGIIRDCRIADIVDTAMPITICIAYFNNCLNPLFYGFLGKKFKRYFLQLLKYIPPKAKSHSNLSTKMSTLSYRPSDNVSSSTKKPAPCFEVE
Procedure, shortened: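 Radioligand displacement: test compound competed with [125I]-angiotensin II (22.5 pM) on stable CHO-K1 AT1 membrane fraction, 1 hr, room temperature, Tris pH 7.4/MgCl2 buffer ± 0.3 mg/mL BSA. Filtration then scintillation counting; 1 μM CV-11974 defined nonspecific binding. Values are IC50s.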

| Compound | activation at 1 µM (PPARγ) [%] | IC50 (human AT1 receptor) [nM] |
| --- | --- | --- |
| CCCc1nc(C)n(-c2ccc3c(c2)CC(C)(C)O3)c(=O)c1Cc1ccc(-c2ccccc2-c2noc(O)n2)c(F)c1 [Example 402, 3-(2,2-dimethyl-2,3-dihydro-1-benzofuran-5-yl)-5-{[2-fluoro-2′-(5-oxo-4,5-dihydro-1,2,4-oxadiazol-3-yl)biphenyl-4-yl]methyl}-2-methyl-6-propylpyrimidin-4(3H)-one] | 24.1 | 1.8 |
| CCCCc1nc(C)n(Cc2nc3ccccc3s2)c(=O)c1Cc1ccc(-c2ccccc2-c2noc(=O)[nH]2)cc1 [Example 64, 3-(1,3-benzothiazol-2-ylmethyl)-6-butyl-2-methyl-5-{[2′-(5-oxo-4,5-dihydro-1,2,4-oxadiazol-3-yl)biphenyl-4-yl]methyl}pyrimidin-4(3H)-one] | 59.9 | 2 |
| CCCc1nc(CC)n(-c2ccc(OC3CCC(=O)CC3)cc2)c(=O)c1Cc1ccc(-c2ccccc2-c2noc(=O)[nH]2)cc1 [Example 416, 2-ethyl-3-{4-[(4-oxocyclohexyl)oxy]phenyl}-5-{[2′-(5-oxo-4,5-dihydro-1,2,4-oxadiazol-3-yl)biphenyl-4-yl]methyl}-6-propylpyrimidin-4(3H)-one] | 53.5 | 1.2 |
| CCCc1nc(C)n(-c2cc(F)c3c(c2)CC(C)(C)O3)c(=O)c1Cc1ccc(-c2ccccc2-c2noc(=O)[nH]2)cc1 [Example 275, 3-(7-fluoro-2,2-dimethyl-2,3-dihydro-1-benzofuran-5-yl)-2-methyl-5-{[2′-(5-oxo-4,5-dihydro-1,2,4-oxadiazol-3-yl)biphenyl-4-yl]methyl}-6-propylpyrimidin-4(3H)-one] | 17 | 1.8 |
| CCCc1nc(C)c(-c2ccc(OC(C)C)cc2)c(=O)n1Cc1ccc(-c2ccccc2-c2noc(O)n2)cc1 [Example 28, 5-(4-isopropoxyphenyl)-6-methyl-3-{[2′-(5-oxo-4,5-dihydro-1,2,4-oxadiazol-3-yl)biphenyl-4-yl]methyl}-2-propylpyrimidin-4(3H)-one] | 16.2 | 1.6 |
| CCCc1nc(C)n(-c2ccc(OC(C)C#N)cc2)c(=O)c1Cc1ccc(-c2ccccc2-c2noc(=O)[nH]2)cc1 (stereo not drawn) [Example 327, 2-{4-[2-methyl-6-oxo-5-{[2′-(5-oxo-4,5-dihydro-1,2,4-oxadiazol-3-yl)biphenyl-4-yl]methyl}-4-propylpyrimidin-1(6H)-yl]phenoxy}propanenitrile] | 22.6 | 2.2 |
| CCCc1nc(CC)n(-c2ccc(OC3CCC(O)C3)cc2)c(=O)c1Cc1ccc(-c2ccccc2-c2noc(=O)[nH]2)cc1 (stereo not drawn) [Example 425, 2-ethyl-3-{4-[(3-hydroxycyclopentyl)oxy]phenyl}-5-{[2′-(5-oxo-4,5-dihydro-1,2,4-oxadiazol-3-yl)biphenyl-4-yl]methyl}-6-propylpyrimidin-4(3H)-one] | 37.5 | 1.2 |
| CCCc1nc(CC)c(-c2ccc(OC(C)(C)CO)cc2)c(=O)n1Cc1ccc(-c2ccccc2-c2noc(=O)[nH]2)cc1F [Example 511, 6-ethyl-3-{[3-fluoro-2′-(5-oxo-4,5-dihydro-1,2,4-oxadiazol-3-yl)biphenyl-4-yl]methyl}-5-[4-(2-hydroxy-1,1-dimethylethoxy)phenyl]-2-propylpyrimidin-4(3H)-one] | 31 | 1.3 |
| CCCc1nc(C)c(-c2ccc(OC(C)(C)CO)cc2)c(=O)n1Cc1ccc(-c2ccccc2-c2noc(=O)[nH]2)cc1F [Example 509, 3-{[3-fluoro-2′-(5-oxo-4,5-dihydro-1,2,4-oxadiazol-3-yl)biphenyl-4-yl]methyl}-5-[4-(2-hydroxy-1,1-dimethylethoxy)phenyl]-6-methyl-2-propylpyrimidin-4(3H)-one] | 16.2 | 1.2 |
| CCCc1nc(C)n(-c2ccc(OC(C)(C)C(C)O)cc2)c(=O)c1Cc1ccc(-c2ccccc2-c2noc(=O)[nH]2)cc1 (stereo not drawn) [Example 439, 3-[4-(2-hydroxy-1,1-dimethylpropoxy)phenyl]-2-methyl-5-{[2′-(5-oxo-4,5-dihydro-1,2,4-oxadiazol-3-yl)biphenyl-4-yl]methyl}-6-propylpyrimidin-4(3H)-one] | 20.1 | 1.4 |
| CCCCc1nc(C)n(CC23CC4CC(CC(C4)C2)C3)c(=O)c1Cc1ccc(-c2ccccc2-c2noc(=O)[nH]2)cc1 [Example 42, 3-(1-adamantylmethyl)-6-butyl-2-methyl-5-{[2′-(5-oxo-4,5-dihydro-1,2,4-oxadiazol-3-yl)biphenyl-4-yl]methyl}pyrimidin-4(3H)-one] | 61.2 | 1.5 |
| CCCc1nc(CC)n(-c2ccc(OC3CCCC(O)C3)cc2)c(=O)c1Cc1ccc(-c2ccccc2-c2noc(=O)[nH]2)cc1 (stereo not drawn) [Example 422, 2-ethyl-3-{4-[(3-hydroxycyclohexyl)oxy]phenyl}-5-{[2′-(5-oxo-4,5-dihydro-1,2,4-oxadiazol-3-yl)biphenyl-4-yl]methyl}-6-propylpyrimidin-4(3H)-one] | 22.2 | 0.9 |
| CCCc1nc(CC)n(-c2ccc(OC(C)C)cc2)c(=O)c1Cc1ccc(-c2ccccc2-c2noc(=O)[nH]2)cc1 [Example 362, 2-ethyl-3-(4-isopropoxyphenyl)-5-{[2′-(5-oxo-4,5-dihydro-1,2,4-oxadiazol-3-yl)biphenyl-4-yl]methyl}-6-propylpyrimidin-4(3H)-one] | 58.7 | 2.4 |
| CCCc1nc(C)c(-c2ccc(OCC3CC3)nc2)c(=O)n1Cc1ccc(-c2ccccc2-c2noc(=O)[nH]2)cc1F [Example 501, 5-[6-(cyclopropylmethoxy)pyridin-3-yl]-3-{[3-fluoro-2′-(5-oxo-4,5-dihydro-1,2,4-oxadiazol-3-yl)biphenyl-4-yl]methyl}-6-methyl-2-propylpyrimidin-4(3H)-one] | 31.8 | 2.6 |
| CCCc1nc(OC)n(-c2ccc(OC(C)(C)C)cc2)c(=O)c1Cc1ccc(-c2ccccc2-c2noc(O)n2)cc1 [Example 369, 3-(4-tert-butoxyphenyl)-2-methoxy-5-{[2′-(5-oxo-4,5-dihydro-1,2,4-oxadiazol-3-yl)biphenyl-4-yl]methyl}-6-propylpyrimidin-4(3H)-one] | 36.3 | 1.9 |
| CCCc1nc(C)n(-c2ccc(OC(C)(C)C(C)=O)cc2)c(=O)c1Cc1ccc(-c2ccccc2-c2noc(=O)[nH]2)cc1 [Example 440, 3-[4-(1,1-dimethyl-2-oxopropoxy)phenyl]-2-methyl-5-{[2′-(5-oxo-4,5-dihydro-1,2,4-oxadiazol-3-yl)biphenyl-4-yl]methyl}-6-propylpyrimidin-4(3H)-one] | 29.9 | 1.6 |
| CCCc1nc(CC)n(-c2ccc(OC(COCC)COCC)cc2)c(=O)c1Cc1ccc(-c2ccccc2-c2noc(=O)[nH]2)cc1 [Example 395, 3-{4-[2-ethoxy-1-(ethoxymethyl)ethoxy]phenyl}-2-ethyl-5-{[2′-(5-oxo-4,5-dihydro-1,2,4-oxadiazol-3-yl)biphenyl-4-yl]methyl}-6-propylpyrimidin-4(3H)-one] | 16 | 1.7 |
| CCCc1nc(C)n(-c2ccc3c(c2)CC(C)(C)O3)c(=O)c1Cc1ccc(-c2ccccc2-c2noc(=O)[nH]2)cc1 [Example 239, 3-(2,2-dimethyl-2,3-dihydro-1-benzofuran-5-yl)-2-methyl-5-{[2′-(5-oxo-4,5-dihydro-1,2,4-oxadiazol-3-yl)biphenyl-4-yl]methyl}-6-propylpyrimidin-4(3H)-one] | 31.6 | 1.8 |
